Where two headings read alike, the source gives them in different places.
Tests used:
non-expressing oocytes [1] = experiment: cells; type: cell-based, Xenopus laevis; conditions: non-expressing oocytes, total [3H]CQ transport, normalised to the oocyte type control
In short: (§1)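 Radioactivity accumulated per oocyte, read by liquid scintillation after 10% SDS lysis, served as the uptake measure. Incubations ran 1.5 h at 27.5 °C in ND96 at pH 5.5, matching digestive-vacuole acidity.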

PfCRT^3D7 [2] = target: T1, PfCRT^3D7 (Plasmodium falciparum, UniProt Q8IBZ9); experiment: cell-based; type: cell-based; conditions: PfCRT3D7 oocytes, total [3H]CQ transport, normalised to the oocyte type control
T1 sequence (Q8IBZ9 59-398): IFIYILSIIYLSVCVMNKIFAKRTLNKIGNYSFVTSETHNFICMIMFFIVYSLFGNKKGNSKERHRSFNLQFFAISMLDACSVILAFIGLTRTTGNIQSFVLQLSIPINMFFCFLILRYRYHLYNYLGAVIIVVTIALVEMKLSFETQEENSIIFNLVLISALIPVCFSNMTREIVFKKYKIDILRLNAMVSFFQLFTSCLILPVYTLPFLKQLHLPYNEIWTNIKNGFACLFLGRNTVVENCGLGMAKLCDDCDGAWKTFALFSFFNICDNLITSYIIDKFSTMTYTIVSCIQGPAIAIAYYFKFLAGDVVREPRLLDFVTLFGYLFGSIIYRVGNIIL
In short: as §1

PfCRT^Dd2 [3] = target: T2, PfCRT^Dd2 (Plasmodium falciparum, UniProt Q9N623, A220S/I356T/K76T/M74I/N326S/N75E/Q271E/R371I); experiment: [3H]CQ uptake into Xenopus oocytes, cis-inhibition by unlabelled solute; type: cell-based; conditions: PfCRTDd2 oocytes, background [3H]CQ accumulation subtracted, normalised to oocyte type control
T2 sequence (Q9N623 whole entry A220S/I356T/K76T/M74I/N326S/N75E/Q271E/R371I): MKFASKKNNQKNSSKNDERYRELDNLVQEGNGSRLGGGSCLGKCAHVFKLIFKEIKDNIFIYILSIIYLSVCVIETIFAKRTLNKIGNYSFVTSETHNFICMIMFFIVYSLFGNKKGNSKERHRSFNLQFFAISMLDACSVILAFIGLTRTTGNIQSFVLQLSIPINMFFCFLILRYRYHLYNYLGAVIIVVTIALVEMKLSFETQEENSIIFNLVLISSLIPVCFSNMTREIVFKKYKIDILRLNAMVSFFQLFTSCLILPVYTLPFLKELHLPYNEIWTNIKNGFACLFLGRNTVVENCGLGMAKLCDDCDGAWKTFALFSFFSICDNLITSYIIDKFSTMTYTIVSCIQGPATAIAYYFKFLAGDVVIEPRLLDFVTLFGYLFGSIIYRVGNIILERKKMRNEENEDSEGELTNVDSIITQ
In short: as §1

PfCRT^Ecu1110 [4] = target: T3, PfCRT^Ecu1110 (Plasmodium falciparum, UniProt Q9N623, A220S/I356L/K76T/N326D); experiment: as above; type: cell-based; conditions: for Uptake of [3H]CQ (% PfCRTEcu1110 control), cis-inhibition / PfCRT-mediated [3H]CQ transport, cis-inhibition (% PfCRTEcu1110 control): PfCRTEcu1110 oocytes; for Uptake of [3H]CQ (% PfCRTEcu1110 control), cis-inhibition: total [3H]CQ transport, normalised to the oocyte type control; for PfCRT-mediated [3H]CQ transport, cis-inhibition (% PfCRTEcu1110 control): background [3H]CQ accumulation subtracted, normalised to oocyte type control; for [3H]CQ transport (% PfCRTEcu1110 control), cis-inhibition, PfCRTEcu1110: PfCRT-mediated component (background subtracted), sheet title says normalised to PfCRTDd2 control, mean ± SEM, SEM
T3 sequence (Q9N623 whole entry A220S/I356L/K76T/N326D): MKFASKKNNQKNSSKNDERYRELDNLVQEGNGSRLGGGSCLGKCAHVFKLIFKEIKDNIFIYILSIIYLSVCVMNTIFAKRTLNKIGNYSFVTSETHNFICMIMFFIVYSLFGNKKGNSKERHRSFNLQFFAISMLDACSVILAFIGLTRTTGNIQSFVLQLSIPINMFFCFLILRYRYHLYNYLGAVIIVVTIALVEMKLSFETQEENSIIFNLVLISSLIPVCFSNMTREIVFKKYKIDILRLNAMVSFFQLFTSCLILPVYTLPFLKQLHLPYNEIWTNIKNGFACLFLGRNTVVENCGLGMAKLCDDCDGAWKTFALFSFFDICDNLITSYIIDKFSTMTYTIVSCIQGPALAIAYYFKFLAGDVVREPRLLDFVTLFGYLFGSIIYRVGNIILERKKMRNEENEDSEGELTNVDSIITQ
In short: as §1

non-expressing oocytes [5] = type: cell-based, Xenopus laevis; conditions: non-expressing oocytes, total [3H]CQ transport, normalised to the oocyte type control
In short: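 Oocytes (ten per treatment, ≥4 independent frogs/days) were preloaded by injecting VF-6 in 25 nL ND96 at pH 5.0, 5.5, 6.0 or 7.0, or Na^+-free choline buffer, then uptake run 1.5 h, 27.5 °C, ND96 pH 5.5 by default. Internal concentrations assumed ~400 nL oocyte volume.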

PfCRT^3D7 [6] = target: T1, PfCRT^3D7; experiment: cell-based; type: cell-based; conditions: PfCRT3D7 oocytes; for Uptake of [3H]CQ (% PfCRT3D7 control), trans-stimulation: total [3H]CQ transport, normalised to the oocyte type control; for PfCRT-mediated [3H]CQ transport, trans-stimulation (% PfCRT3D7 control): normalised to oocyte type control
In short: (§2)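 Transport measured in Xenopus oocytes expressing the transporters, 1.5 h at 27.5 °C in ND96 pH 5.5 unless noted. For trans-stimulation, VF-6 injected in 25 nL ND96 at pH 5.0–7.0 or Na^+-free (choline) buffer; intracellular levels based on ~400 nL oocyte volume. Ten oocytes per treatment, ≥4 experiments.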

PfCRT^Dd2 [7] = target: T2, PfCRT^Dd2; experiment: cell-based; type: cell-based; conditions: for PfCRT-mediated [3H]CQ transport, trans-stimulation (% PfCRTDd2 control): normalised to oocyte type control; for [3H]CQ transport (% PfCRTDd2 control), trans-stimulation, PfCRTDd2: PfCRT-mediated component (background subtracted), mean ± SEM, SEM
In short: as §2

PfCRT^Ecu1110 [8] = target: T3, PfCRT^Ecu1110; experiment: cell-based; type: cell-based; conditions: for Uptake of [3H]CQ (% PfCRTEcu1110 control), trans-stimulation / PfCRT-mediated [3H]CQ transport, trans-stimulation (% PfCRTEcu1110 control): PfCRTEcu1110 oocytes; for Uptake of [3H]CQ (% PfCRTEcu1110 control), trans-stimulation: total [3H]CQ transport, normalised to the oocyte type control; for PfCRT-mediated [3H]CQ transport, trans-stimulation (% PfCRTEcu1110 control): normalised to oocyte type control; for [3H]CQ transport (% PfCRTDd2 control), trans-stimulation, PfCRTEcu1110: PfCRT-mediated component (background subtracted), sheet title says normalised to PfCRTDd2 control, mean ± SEM, SEM
In short: as §2

PfNT1 = target: T4, PfNT1 (Plasmodium falciparum, UniProt Q8IDM6); experiment: cell-based; type: cell-based; conditions: PfNT1 oocytes, total [3H]CQ transport, normalised to the oocyte type control
T4 construct: expressed in transfected cells; host or cells: Xenopus laevis oocytes (stage V-VI), cRNA-injected
T4 sequence (Q8IDM6 whole entry): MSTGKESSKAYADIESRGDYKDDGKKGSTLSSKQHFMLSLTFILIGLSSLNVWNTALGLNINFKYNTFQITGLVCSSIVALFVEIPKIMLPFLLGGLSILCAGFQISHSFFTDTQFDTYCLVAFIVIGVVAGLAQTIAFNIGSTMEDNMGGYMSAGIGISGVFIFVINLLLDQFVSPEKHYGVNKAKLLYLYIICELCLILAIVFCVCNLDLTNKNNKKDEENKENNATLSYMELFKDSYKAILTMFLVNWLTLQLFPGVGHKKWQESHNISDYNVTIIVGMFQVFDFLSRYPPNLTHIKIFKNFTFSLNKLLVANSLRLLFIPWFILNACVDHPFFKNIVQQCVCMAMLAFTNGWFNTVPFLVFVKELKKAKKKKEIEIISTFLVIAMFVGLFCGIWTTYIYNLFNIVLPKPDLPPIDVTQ
In short: as §2

PfCRT = experiment: Test of solutes as potential co-substrates for influx of VF-6 via PfCRT into the oocyte; type: cell-based, Plasmodium falciparum; parameters: key: X: Compounds that have been tested as potential co-substrates but are not required for influx of VF-6 via PfCRT into the oocyte; conditions: X = tested
[9] = [test solute]i = 45 mM (30 mM for some solutes due to solubility)
[10] = [test solute]i = 5 mM (intracellular)
[11] = [test solute]i = 45 mM (intracellular; 30 mM for some solutes due to solubility)
[12] = [test solute]i = 5 mM (injected)

Q: For PVNF [PF-4], which “Uptake of [3H]CQ (% non-expressing oocyte control), cis-inhibition” value (non-expressing oocytes [1]; [test solute] = 0.5 mM) is on record?
A: 98 ± 4.8 % non-expressing oocyte control

Q: And the “Uptake of [3H]CQ (% non-expressing oocyte control), cis-inhibition” value (non-expressing oocytes [1]; [test solute] = 1 mM)?
A: 99 ± 2.6 % non-expressing oocyte control

Q: What about the “Uptake of [3H]CQ (% non-expressing oocyte control), cis-inhibition” value (non-expressing oocytes [1]; [test solute] = 2 mM) of the same substance?
A: 98 ± 3.6 % non-expressing oocyte control

Q: And the “Uptake of [3H]CQ (% PfCRT3D7 control), cis-inhibition” value (PfCRT^3D7 [2]; [test solute] = 0.5 mM)?
A: 99 ± 4.7 % PfCRT3D7 control

Q: What about the “Uptake of [3H]CQ (% PfCRT3D7 control), cis-inhibition” value (PfCRT^3D7 [2]; [test solute] = 1 mM) of the same substance?
A: 100 ± 5.6 % PfCRT3D7 control

Q: And the “Uptake of [3H]CQ (% PfCRT3D7 control), cis-inhibition” value (PfCRT^3D7 [2]; [test solute] = 2 mM)?
A: 101 ± 5.3 % PfCRT3D7 control

Q: And the “PfCRT-mediated [3H]CQ transport, cis-inhibition (% PfCRTDd2 control)” value (PfCRT^Dd2 [3]; [test solute] = 0.5 mM)?
A: 60 ± 3.3 % PfCRTDd2 control

Q: And the “PfCRT-mediated [3H]CQ transport, cis-inhibition (% PfCRTDd2 control)” value (PfCRT^Dd2 [3]; [test solute] = 1 mM)?
A: 51 ± 0.3 % PfCRTDd2 control

Q: And the “PfCRT-mediated [3H]CQ transport, cis-inhibition (% PfCRTDd2 control)” value (PfCRT^Dd2 [3]; [test solute] = 2 mM)?
A: 39 ± 2.1 % PfCRTDd2 control

Q: And the “Uptake of [3H]CQ (% PfCRTEcu1110 control), cis-inhibition” value (PfCRT^Ecu1110 [4]; [test solute] = 0.5 mM)?
A: 65 ± 4.3 % PfCRTEcu1110 control

Q: And the “Uptake of [3H]CQ (% PfCRTEcu1110 control), cis-inhibition” value (PfCRT^Ecu1110 [4]; [test solute] = 1 mM)?
A: 59 ± 3.3 % PfCRTEcu1110 control

Q: What about the “Uptake of [3H]CQ (% PfCRTEcu1110 control), cis-inhibition” value (PfCRT^Ecu1110 [4]; [test solute] = 2 mM) of the same substance?
A: 41 ± 2.4 % PfCRTEcu1110 control

Q: And the “PfCRT-mediated [3H]CQ transport, cis-inhibition (% PfCRTEcu1110 control)” value (PfCRT^Ecu1110 [4]; [test solute] = 0.5 mM)?
A: 61 ± 2.6 % PfCRTEcu1110 control

Q: What about the “PfCRT-mediated [3H]CQ transport, cis-inhibition (% PfCRTEcu1110 control)” value (PfCRT^Ecu1110 [4]; [test solute] = 1 mM) of the same substance?
A: 51 ± 4.2 % PfCRTEcu1110 control

Q: What about the “PfCRT-mediated [3H]CQ transport, cis-inhibition (% PfCRTEcu1110 control)” value (PfCRT^Ecu1110 [4]; [test solute] = 2 mM) of the same substance?
A: 37 ± 2.9 % PfCRTEcu1110 control

Q: And the “[3H]CQ transport (% PfCRTEcu1110 control), cis-inhibition, PfCRTEcu1110” value (PfCRT^Ecu1110 [4]; [test solute] = 1 mM)?
A: 16 ± 0.2 % PfCRTEcu1110 control

Q: What about the “[3H]CQ transport (% PfCRTEcu1110 control), cis-inhibition, PfCRTEcu1110” value (PfCRT^Ecu1110 [4]; [test solute] = 2 mM) of the same substance?
A: 12 ± 0.3 % PfCRTEcu1110 control

Q: And the “Uptake of [3H]CQ (% non-expressing oocyte control), trans-stimulation” value (non-expressing oocytes [5]; [test solute]i = 5 mM)?
A: 99 ± 2.7 % non-expressing oocyte control

Q: And the “Uptake of [3H]CQ (% non-expressing oocyte control), trans-stimulation” value (non-expressing oocytes [5]; [9])?
A: 99 ± 3.4 % non-expressing oocyte control

Q: And the “Uptake of [3H]CQ (% PfCRT3D7 control), trans-stimulation” value (PfCRT^3D7 [6]; [test solute]i = 5 mM)?
A: 138 ± 4.2 % PfCRT3D7 control

Q: What about the “Uptake of [3H]CQ (% PfCRT3D7 control), trans-stimulation” value (PfCRT^3D7 [6]; [9]) of the same substance?
A: 163 ± 7.4 % PfCRT3D7 control

Q: What about the “PfCRT-mediated [3H]CQ transport, trans-stimulation (% PfCRT3D7 control)” value (PfCRT^3D7 [6]; [10]) of the same substance?
A: 130 ± 3.2 % PfCRT3D7 control

Q: And the “PfCRT-mediated [3H]CQ transport, trans-stimulation (% PfCRT3D7 control)” value (PfCRT^3D7 [6]; [11])?
A: 157 ± 4.4 % PfCRT3D7 control

Q: What about the “Uptake of [3H]CQ (% PfCRTDd2 control), trans-stimulation” value (PfCRT^Dd2 [7]; PfCRTDd2 oocytes, [test solute]i = 45 mM (30 mM for some solutes due to solubility), total [3H]CQ transport, normalised to the oocyte type control) of the same substance?
A: 115 ± 2.7 % PfCRTDd2 control

Q: And the “PfCRT-mediated [3H]CQ transport, trans-stimulation (% PfCRTDd2 control)” value (PfCRT^Dd2 [7]; [test solute]i = 5 mM (intracellular), PfCRTDd2 oocytes)?
A: 99 ± 1.9 % PfCRTDd2 control

Q: What about the “PfCRT-mediated [3H]CQ transport, trans-stimulation (% PfCRTDd2 control)” value (PfCRT^Dd2 [7]; [test solute]i = 45 mM (intracellular; 30 mM for some solutes due to solubility), PfCRTDd2 oocytes) of the same substance?
A: 112 ± 0.9 % PfCRTDd2 control

Q: And the “[3H]CQ transport (% PfCRTDd2 control), trans-stimulation, PfCRTDd2” value (PfCRT^Dd2 [7]; [12])?
A: 99 ± 1.9 % PfCRTDd2 control

Q: And the “[3H]CQ transport (% PfCRTDd2 control), trans-stimulation, PfCRTDd2” value (PfCRT^Dd2 [7]; [9])?
A: 112 ± 0.9 % PfCRTDd2 control

Q: And the “Uptake of [3H]CQ (% PfCRTEcu1110 control), trans-stimulation” value (PfCRT^Ecu1110 [8]; [test solute]i = 5 mM)?
A: 120 ± 1.1 % PfCRTEcu1110 control

Q: What about the “Uptake of [3H]CQ (% PfCRTEcu1110 control), trans-stimulation” value (PfCRT^Ecu1110 [8]; [9]) of the same substance?
A: 135 ± 1.4 % PfCRTEcu1110 control

Q: And the “PfCRT-mediated [3H]CQ transport, trans-stimulation (% PfCRTEcu1110 control)” value (PfCRT^Ecu1110 [8]; [10])?
A: 118 ± 0.3 % PfCRTEcu1110 control

Q: And the “PfCRT-mediated [3H]CQ transport, trans-stimulation (% PfCRTEcu1110 control)” value (PfCRT^Ecu1110 [8]; [11])?
A: 130 ± 3.2 % PfCRTEcu1110 control

Q: And the “[3H]CQ transport (% PfCRTDd2 control), trans-stimulation, PfCRTEcu1110” value (PfCRT^Ecu1110 [8]; [12])?
A: 36 ± 1.3 % PfCRTEcu1110 control

Q: And the “[3H]CQ transport (% PfCRTDd2 control), trans-stimulation, PfCRTEcu1110” value (PfCRT^Ecu1110 [8]; [9])?
A: 39 ± 1.7 % PfCRTEcu1110 control

Q: And the “Uptake of [3H]CQ (% PfNT1 control), trans-stimulation” value (PfNT1; [test solute]i = 5 mM)?
A: 99 ± 4.2 % PfNT1 control

Q: And the “Uptake of [3H]CQ (% PfNT1 control), trans-stimulation” value (PfNT1; [9])?
A: 100 ± 2.9 % PfNT1 control

Q: And the “Tested as potential co-substrate but not required for influx of VF-6 via PfCRT into the oocyte” value (PfCRT)?
A: X

Reference: paper PMC7413254 (Nature Communications, 2020)
